The text below walks through data of ChEMBL document CHEMBL3085710, “Pahangensin A and B, two new antibacterial diterpenes from the rhizomes of Alpinia pahangensis Ridley” (2013).

SMILES strings stand for the structures. In brackets after ≈: the same amount, converted by molar mass.

One may read the MIC as the smallest concentration in the dilution series that meets the test's criterion for growth inhibition. High values mean weaker potency, low ones greater potency.

Test [1] concerns Bacillus cereus. The test can be described thus: Antibacterial activity against Bacillus cereus Frankland and Frankland ATCC 11778 after overnight incubation by broth microdilution method. It counts as functional.
Test [2] concerns Salmonella typhimurium. The test can be described thus: Antibacterial activity against Salmonella typhimurium (Loeffler) Castellani and Chalmers ATCC 14028 after overnight incubation by broth microdilution method. It counts as functional, Salmonella enterica subsp. enterica serovar Typhimurium. The following applies: Salmonella enterica. For orientation: In broth dilution the organism is exposed to a series of concentrations in liquid medium.

Test [3] deals with Escherichia coli. The test is described as follows: Antibacterial activity against Escherichia coli (Migula) Castellani and Chalmers ATCC 25922 after overnight incubation by broth microdilution method. It counts as functional.
The subject of test [4] is Bacillus subtilis. The test is described as follows: Antibacterial activity against Bacillus subtilis (Ehrenberg) Cohn ATCC 6051 after overnight incubation by broth microdilution method. The format is functional.
The subject of test [5] is Staphylococcus aureus. The test is described as follows: Antibacterial activity against Staphylococcus aureus Rosenbach ATCC 9144 after overnight incubation by broth microdilution method. It counts as functional.
For test [6], the system named is Salmonella sp. The test is described as follows: Antibacterial activity against Salmonella sp. ATCC 700623 after overnight incubation by broth microdilution method. The format is functional.

`CC1(C)S[C@@H]2[C@H](NC(=O)Cc3ccccc3)C(=O)N2[C@H]1C(=O)O` [PENICILLIN G]: the MIC in test [1] was found to be 62.5 µg/mL (≈ 187 µM); in test [2], 125 µg/mL (≈ 374 µM); in test [3], 125 µg/mL (≈ 374 µM); in test [4] it was 15.6 µg/mL (≈ 46.7 µM); in test [5] it was 3.91 µg/mL (≈ 11.7 µM); in test [6], 31.2 µg/mL (≈ 93.5 µM).
Turning to `O=C(N[C@H](CO)[C@H](O)c1ccc([N+](=O)[O-])cc1)C(Cl)Cl` [CHLORAMPHENICOL], the MIC is 15.6 µg/mL (≈ 48.4 µM) in test [1]; 15.6 µg/mL (≈ 48.3 µM) in test [2]; 7.81 µg/mL (≈ 24.2 µM) in test [3]; 15.6 µg/mL (≈ 48.4 µM) in test [4]; 31.2 µg/mL (≈ 96.7 µM) in test [5]; 15.6 µg/mL (≈ 48.4 µM) in test [6].
Take `C=C1CC[C@H]2C(C)(C)CCC[C@]2(C)[C@H]1C/C=C(/C=O)CC(=O)OC`: the MIC in test [1] was found to be 52.1 µg/mL (≈ 157 µM).
For the molecule `CN[C@@H]1[C@H](O[C@H]2[C@H](O[C@H]3[C@H](O)[C@@H](O)[C@H](N=C(N)N)[C@@H](O)[C@@H]3N=C(N)N)O[C@@H](C)[C@]2(O)C=O)O[C@@H](CO)[C@H](O)[C@H]1O` [STREPTOMYCIN], the MIC was 15.6 µg/mL (≈ 26.9 µM) in test [1]; 62.5 µg/mL (≈ 107 µM) in test [2]; 15.6 µg/mL (≈ 26.9 µM) in test [3]; 31.2 µg/mL (≈ 53.7 µM) in test [4]; 31.2 µg/mL (≈ 53.7 µM) in test [5]; 15.6 µg/mL (≈ 26.9 µM) in test [6].
As to `C=C1CC[C@H]2C(C)(C)CCC[C@]2(C)[C@H]1/C=C/C1=C(C2=C(/C=C/[C@H]3C(=C)CC[C@H]4C(C)(C)CCC[C@]34C)COC2=O)C(=O)OC1`, the MIC is 31.2 µg/mL (≈ 52.2 µM) in test [1], 31.2 µg/mL (≈ 52.2 µM) in test [4] and 52.1 µg/mL (≈ 87 µM) in test [5].
